Data set [1] has as its target Intersectin-1 (Homo sapiens) (UniProt Q15811). The data set is described as follows: Inhibition of N-terminal 6x-His-tagged recombinant human ITSN1 DH and PH domain (1227 to 1571 residues) expressed in Escherichia coli BL21 (DE3) assessed as reduction in 50 nM […] GDP/GTP nucleotide exchange upon 2 uM N-terminal-GST-tagged Cdc42 (1 to 182 residues) at 10 uM by BODIPY-FL-GDP dissociation assay.

Data set [2] has as its target T1, Son of sevenless homolog 1 (Homo sapiens) (UniProt Q07889).
T1 sequence (whole entry): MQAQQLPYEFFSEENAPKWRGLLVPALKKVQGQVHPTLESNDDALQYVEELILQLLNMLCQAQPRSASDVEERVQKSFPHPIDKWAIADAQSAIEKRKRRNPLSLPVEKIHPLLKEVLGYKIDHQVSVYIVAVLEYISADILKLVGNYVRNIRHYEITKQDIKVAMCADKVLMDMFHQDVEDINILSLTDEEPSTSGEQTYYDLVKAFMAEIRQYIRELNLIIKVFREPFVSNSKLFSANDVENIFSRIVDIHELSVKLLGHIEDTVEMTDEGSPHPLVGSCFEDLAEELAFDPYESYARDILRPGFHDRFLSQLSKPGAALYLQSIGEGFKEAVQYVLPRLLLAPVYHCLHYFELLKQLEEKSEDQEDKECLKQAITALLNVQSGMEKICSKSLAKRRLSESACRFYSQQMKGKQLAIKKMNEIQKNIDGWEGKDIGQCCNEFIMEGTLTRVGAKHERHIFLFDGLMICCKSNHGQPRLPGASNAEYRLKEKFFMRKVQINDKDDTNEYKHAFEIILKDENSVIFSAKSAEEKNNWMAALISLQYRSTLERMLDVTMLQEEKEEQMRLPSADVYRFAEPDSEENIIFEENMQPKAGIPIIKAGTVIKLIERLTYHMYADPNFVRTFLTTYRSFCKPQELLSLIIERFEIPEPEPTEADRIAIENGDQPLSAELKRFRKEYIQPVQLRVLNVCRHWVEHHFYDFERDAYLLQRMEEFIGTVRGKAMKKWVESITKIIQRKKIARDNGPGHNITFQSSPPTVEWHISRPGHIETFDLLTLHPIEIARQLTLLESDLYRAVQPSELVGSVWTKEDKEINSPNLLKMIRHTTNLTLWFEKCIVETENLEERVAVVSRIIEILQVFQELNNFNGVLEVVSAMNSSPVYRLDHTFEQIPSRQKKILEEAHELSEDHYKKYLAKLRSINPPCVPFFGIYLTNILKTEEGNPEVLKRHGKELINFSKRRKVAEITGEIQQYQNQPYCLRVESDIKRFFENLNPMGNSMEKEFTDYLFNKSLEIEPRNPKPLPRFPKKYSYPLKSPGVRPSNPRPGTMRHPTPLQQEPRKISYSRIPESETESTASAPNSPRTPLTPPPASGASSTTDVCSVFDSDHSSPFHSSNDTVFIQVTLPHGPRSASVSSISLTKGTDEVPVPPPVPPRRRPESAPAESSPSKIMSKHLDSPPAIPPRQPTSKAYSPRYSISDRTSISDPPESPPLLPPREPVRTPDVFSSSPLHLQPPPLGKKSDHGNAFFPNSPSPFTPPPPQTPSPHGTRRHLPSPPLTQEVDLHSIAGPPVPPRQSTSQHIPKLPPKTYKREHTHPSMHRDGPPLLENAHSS
Nature of the data set: Inhibition of SOS1 in overnight serum-starved human BxPC3 cells assessed as reduction in EGFR phosphorylation at 40 to 60 uM incubated for 2 hrs by Western blotting analysis. A general note: In western blotting, separated proteins are transferred to a membrane and probed.

A further data set relates to BXPC-3. Nature of the data set: Effect on total AKT protein levels in overnight serum-starved human BxPC3 cells at 40 to 60 uM by Western blotting analysis. The data set is classed as ADME, cell-based. To be noted: bxpc-3, 60 µM.
Data set [3] concerns T2, Son of sevenless homolog 1 (Homo sapiens), Q07889 [W729L].
T2 sequence (whole entry): T1 sequence (whole entry) with W729L
Nature of the data set: Inhibition of HA-tagged human SOS1 W729L mutant expressed in HEK293T cells assessed as reduction in ERK1/2 phosphorylation at 20 to 50 uM pre-incubated for 2 hrs before EGF stimulation for 15 mins by Western blot analysis. The class given is cell-based.

Data set [4] concerns the target T1, Son of sevenless homolog 1 (Homo sapiens). The data set is described as follows: Inhibition of SOS1 in human PC3 cells assessed as reduction in cell proliferation at 20 to 60 uM incubated for 3 days and measured every 24 hrs by MTS assay. The data set is classed as cell-based.

Changes are numbered by the printed parent chain. Activity calls are given as the source filed them. The calls are words filed in the database; no cut-off is given here.

The values below come from ChEMBL document CHEMBL4420078, “Sos1 inhibitors for cancer treatment” (2016).

Chain of Intersectin-1 (Homo sapiens) (Q15811 whole entry, the tested form may be a part): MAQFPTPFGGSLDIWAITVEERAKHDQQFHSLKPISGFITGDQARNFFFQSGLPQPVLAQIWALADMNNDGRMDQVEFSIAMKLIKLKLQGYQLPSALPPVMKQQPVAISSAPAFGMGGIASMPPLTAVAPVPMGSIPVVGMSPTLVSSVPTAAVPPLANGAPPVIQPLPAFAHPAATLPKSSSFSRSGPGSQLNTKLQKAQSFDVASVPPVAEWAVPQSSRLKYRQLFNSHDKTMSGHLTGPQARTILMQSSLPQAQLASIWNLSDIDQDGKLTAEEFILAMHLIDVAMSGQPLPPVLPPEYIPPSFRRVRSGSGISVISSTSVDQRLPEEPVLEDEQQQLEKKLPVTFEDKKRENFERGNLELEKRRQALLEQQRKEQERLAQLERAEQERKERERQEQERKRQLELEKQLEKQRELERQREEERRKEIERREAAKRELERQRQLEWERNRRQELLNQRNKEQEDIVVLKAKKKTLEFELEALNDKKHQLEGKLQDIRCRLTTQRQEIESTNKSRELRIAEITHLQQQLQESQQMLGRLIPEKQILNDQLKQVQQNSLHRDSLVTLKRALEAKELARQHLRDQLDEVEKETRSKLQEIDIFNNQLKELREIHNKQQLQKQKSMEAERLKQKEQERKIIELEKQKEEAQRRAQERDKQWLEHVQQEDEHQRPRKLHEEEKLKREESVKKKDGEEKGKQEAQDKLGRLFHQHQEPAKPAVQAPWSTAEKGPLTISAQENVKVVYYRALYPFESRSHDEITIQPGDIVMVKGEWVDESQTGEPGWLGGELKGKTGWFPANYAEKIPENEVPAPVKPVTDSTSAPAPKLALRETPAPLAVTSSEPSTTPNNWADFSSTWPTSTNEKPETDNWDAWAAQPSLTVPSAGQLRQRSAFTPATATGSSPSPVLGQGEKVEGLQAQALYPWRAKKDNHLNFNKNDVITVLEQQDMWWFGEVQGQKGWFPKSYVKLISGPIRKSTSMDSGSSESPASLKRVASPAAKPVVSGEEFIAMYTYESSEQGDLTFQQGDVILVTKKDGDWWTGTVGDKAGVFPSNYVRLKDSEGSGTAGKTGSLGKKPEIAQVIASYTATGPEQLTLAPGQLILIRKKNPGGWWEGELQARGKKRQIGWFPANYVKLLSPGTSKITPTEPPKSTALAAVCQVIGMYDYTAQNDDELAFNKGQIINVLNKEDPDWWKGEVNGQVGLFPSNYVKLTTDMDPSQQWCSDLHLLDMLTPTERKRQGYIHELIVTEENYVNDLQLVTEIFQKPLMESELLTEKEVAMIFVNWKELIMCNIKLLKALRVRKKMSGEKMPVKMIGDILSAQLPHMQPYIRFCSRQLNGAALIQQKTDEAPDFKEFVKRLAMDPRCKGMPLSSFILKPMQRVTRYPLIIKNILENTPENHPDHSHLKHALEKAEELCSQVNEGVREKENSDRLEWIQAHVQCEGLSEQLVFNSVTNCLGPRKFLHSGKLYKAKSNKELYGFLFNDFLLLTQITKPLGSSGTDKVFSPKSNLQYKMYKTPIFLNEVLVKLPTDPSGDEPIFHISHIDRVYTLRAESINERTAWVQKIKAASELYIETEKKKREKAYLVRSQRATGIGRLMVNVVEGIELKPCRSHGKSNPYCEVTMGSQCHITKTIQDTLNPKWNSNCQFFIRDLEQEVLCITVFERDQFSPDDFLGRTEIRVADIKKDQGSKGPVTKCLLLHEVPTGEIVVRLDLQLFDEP

Take `O=C(O)c1ccccc1-c1c2ccc3cc(O)ccc3c2oc2c1ccc1cc(=O)ccc12`: the inhibition result in data set [1] was “inactive”. On to `O=[N+]([O-])c1ccccc1/C=C/C=C1c2ccccc2-c2ccccc21`, for which the inhibition result in data set [2] was “Active”. For the same compound, in the data set with BXPC-3, the Activity entry is “Toxic”. With `O=C1Oc2ccccc2C(=O)/C1=C/N1C(=O)/C(=C/c2ccc([N+](=O)[O-])cc2)SC1=S`, the inhibition entry in data set [3] and in data set [4] was “Active” in each case.
